# Earlier results, collected in patent US6858221B2, “Intravascular delivery of mycophenolic acid” (Avantec Vascular Corporation, priority 2000, dated 2005).
# Test system: Human SMC
# Details: dose range 0.1 nM-1 μM, Mohacsi et al. 1997
structure (smiles),measurement,value
"CO[C@H]1C[C@@H]2CC[C@@H](C)[C@@](O)(O2)C(=O)C(=O)N2CCCC[C@H]2C(=O)O[C@H]([C@H](C)C[C@@H]2CC[C@@H](O)[C@H](OC)C2)CC(=O)[C@H](C)/C=C(\C)[C@@H](O)[C@@H](OC)C(=O)[C@H](C)C[C@H](C)/C=C/C=C/C=C/1C [Rapamycin, rapamycin]",IC50,1 nM
